Data set [1] deals with MDA-MB-231 human tumor xenographs. The experiment in a line: Antitumor efficacy in nude mice with MDA-MB-231 human tumor xenographs. The class given is in vivo, athymic nude (nu/nu) mice. To be noted: for anti tumor efficacy compared with original CaPterin, (1:4 mol:mol) calcium pterin / inhibition of MDA-MB-231 xenograph growth (Relative Tumor Volume): oral gavage once daily, FIG. 1; for inhibition of MDA-MB-231 xenograph growth (Relative Tumor Volume): nude mice, versus untreated control. The source says:
FIGS. 1A and 1B (with SEMs): Twenty-nine athymic nude (nu/nu) female mice, ages 3-4 weeks, were inoculated with 10×10^6 MDA-MB-231 cancer cells subcutaneously into the right flank of each mouse. […] Four mice were assigned as controls. Four mice with outlying tumor sizes or non-tumor takes were subsequently excluded. […] The control group was untreated.
Cell Line Propagation and Inoculation: The MDA-MB-231 human breast tumor cell lines were supplied by SRI International (Menlo Park, Calif.) and propagated using standard in vitro cell expansion methods. Briefly, cells were grown in L-15 media from Gibco (Cat. No. 11415-064) supplemented with 2 mM L-Glutamine and 10% Fetal Bovine Serum (FBS). The cells were cultured in an incubator with 5% C02, 37.50C, and 80% humidity. Cells were harvested with 0.25% (w/v) Trypsin-0.03% (w/v) EDTA solution. Cells were prepared for injection by standard methods to appropriate concentrations. Animals were temporarily restrained but not anesthetized for the inoculation of the tumor cells. Animals were subcutaneously injected with the tumor cells in a 100-200 μl volume.
Control groups were untreated. Daily dosing was for 7 days per week. Animals were restrained but not anesthetized for oral dosing.
Tumor Growth Rate Measurements: Each animal was individually tracked for tumor growth by external caliper measurements of protruding tumor. Primary tumor sizes were measured using calipers and an approximate tumor volume calculated using the formula 1/2 (a×b2), where b was the smaller of two perpendicular diameters.
For each group, the mean and standard error of the mean (SEM) of the ratio V/Vo, Relative Tumor Volume (RTV), were plotted as a function of treatment time after inoculation. V0 was the tumor volume at Day 0, when treatment began. Time course statistical analyses based upon repeated measures ANOVA models were used (StatView SE+Graphics, v 1.03).

For data set [2] the following is noted: nude mice treated with DCP, FIG. 3.
Experimental: Twenty-nine athymic nude were each injected subcutaneously with 10×10^6 MDA-MB-231 cancer cells into the right flank. When tumors reached 3-5 mm in size, the mice were divided into five treatment groups of five each and a control group of four mice. Four of these with outlying tumor sizes or non-tumor takes were excluded shortly after treatment began: one each from the (1:4 mol:mol) calcium pterin group, the (1:2 mol:mol) calcium pterin group, the DCP (69 mg/kg/day) group, and one from the control group. Experimental groups were treated by oral gavage once daily with the indicated test suspensions or solutions. Control groups were untreated. Daily dosing was for 7 days per week. Animals were restrained but not anesthetized for oral dosing. Tumors were measured twice weekly with calipers and body weights taken twice weekly on the day of tumor measurements. Blood was collected from all animals via cardiac puncture at termination (after 70 to 98 days of treatment) and processed to EDTA plasma for analysis.
For another data set, the system named is tumor. The following applies: in vivo; cited from earlier work.
The subject of the next data set is sarcoma. To be noted: mice; cited from earlier work.

As for `Nc1nc([O-])c2nccnc2n1.Nc1nc([O-])c2nccnc2n1.[Ca+2]` [DCP, dipterinyl calcium pentahydrate], the entries for the “anti tumor efficacy compared with original CaPterin, (1:4 mol:mol) calcium pterin” value in data set [1] (DCP at 23 mg/kg/day) and in data set [1] (DCP at 69 mg/kg/day) were “significantly greater anti tumor efficacy” and “comparable efficacy”, respectively. For the same compound, in data set [1], the “inhibition of MDA-MB-231 xenograph growth (Relative Tumor Volume)” value was “significantly inhibit”. Further, the “inhibition of MDA-MB-231 xenograph tumors compared with (1:4 mol:mol) calcium pterin [CaPterin]” value in data set [1] (oral, dose not stated (conclusion)) was “significantly greater”. For the same compound, the weight loss entry in data set [2] was “no significant weight loss”.

Regarding `Nc1nc2[nH]c(=O)cnc2c(=O)[nH]1` [Isoxanthopterin], in the data set on tumor, the tumor growth entry is “inhibit tumor growth”.

Take `Nc1nc(=O)c2[nH]c(=O)cnc2[nH]1` [Xanthopterin]: in the data set on sarcoma, the sarcoma growth entry was “inhibit sarcoma growth”.

For `O.O.[Ca+2].[Cl-].[Cl-]` [calcium chloride dihydrate, reference compound], the “inhibition of MDA-MB-231 xenograph growth (Relative Tumor Volume)” value in data set [1] is reported as “significantly inhibit”.

The record behind these values is patent US7662820B2, “Dipterinyl calcium pentahydrate (DCP) and therapeutic methods based thereon” (SanRX Pharmaceuticals, Inc., priority 2006, dated 2010).
